Key:
[1] = system: NKG2A^+ NK cells; experiment: Intracellular cytokines of human blood NK cells using SAMT-247 and PMA stimulation with or without zinc chelator; format: cell-based; settings: human PBMCs
Experimental: Intracellular cytokines of Human blood NK cells using SAMT-247 and PMA stimulation with or without zinc chelator. The levels of NKG2A^+ NK cells were measured in blood of healthy humans. Human PBMCs were thawed and cultured in R10 in the presence or absence of SAMT-247 and/or PMA for 12 hours. Cells were incubated with or without Zinc chelator TPEN (cat. #P4413-100 MG, 5 μM) for 12 h. Subsequently, PBMCs were surface stained with the following: BUV737 anti-CD3 (SP34-2; cat. #741872, 5 μl), Alexa700 anti-CD20 (2H7; cat. #560631, 5 μl), BV786 anti-CD45 (HI30; cat. #563716, 5 μl) from BD Biosciences; APC-H7 anti-CD11b (ICRF44; cat. #47-0118-42, 5 μl) from eBioscience and PE-Cy7 anti-NKG2A (Z199; cat. #B10246, 5 μl) from Beckman coulter for 30 minutes at room temperature. This was followed by permeabilization with FOX3-transcription buffer set (cat. #00-5523-00) from eBioscience according to the manufacture's recommendation and subsequently intracellular staining with the following: BV750 anti-TNF-α (MAB11; cat. #566359, 5 μl), BUV396 anti-IFN-γ (B27; cat. #563563, 5 μl), BV510 anti-GranB (GB11; cat. #563388, 5 μl) from BD Biosciences; and FITC anti-Perforin (pf-344; cat. #3465-7, 5 μl) from MABTECH for 30 minutes at room temperature. Flow cytometry acquisitions were performed on a FACSymphony A5 and examined using FACSDIVA™ software (BD Biosciences).

[2] = system: CD14^+ monocytes; experiment: Zinc chelation: macaque blood monocytes, SAMT-247 and/or gp120 peptides with or without TPEN; format: cell-based
Experimental: Zinc chelation: The frequencies and cytokine levels of NK cells, monocytes and T cells were measured in macaque blood. Cryopreserved PBMCs were thawed and cultured in R10 in the presence/or absence of SAMT-247 and/or gp120 peptides for 12 hours. Cells were incubated with or without Zinc chelator TPEN (cat. #P4413-100 MG, 5 μM) for 12 h. Subsequently, cells were stained for live cells with Live/Dead Blue dye (cat. #L34962, 0.5 μl) from Thermofisher; followed by surface staining with the following: Alexa 700 anti-CD3 (SP34-2; cat. #557917, 5 μl), BV711 anti-CD4 (L200; cat. #563913, 5 μl), BB700 anti-CD8 (RPA-T8; cat. #566452, 5 μl), BUV737 anti-CD20 (2H7; cat. #612848, 5 μl), PE anti-CD45 (D058-1283; cat. #552833, 5 μl), BV786 anti-CCR5 (3A9; cat. #565001, 5 μl), BV496 anti-CD16 (3G8; cat. #612944, 5 μl), BUV661 anti-HLA-DR (G46-6; cat. #612980, 5 μl), BUV805 anti-CD14 (M5E2; cat. #565779, 5 μl) from BD Biosciences; APC-H7 anti-CD11b (ICRF44; cat. #47-0118-42, 5 μl), PE-Cy5 anti-CD95 (ICRF44; cat. #15-0959-42, 5 μl) from eBioscience; APC anti-α4β7, provided by the NIH Nonhuman Primate Reagent Resource (R24 OD010976, and NIAID contract HHSN272201300031C); BV605 anti-CCR6 (G034E3; cat. #353420, 5 μl), BV650 anti-CXCR3 (G025H7; cat. #353730, 5 μl), from Biolegend and PE-Cy7 anti-NKG2A (Z199; cat. #B10246, 5 μl) from Beckman coulter for 30 minutes at room temperature. This was followed by permeabilization with a FOX3-transcription buffer set (cat. #00-5523-00) from eBioscience according to the manufacture's recommendation and subsequently intracellular staining with the following: BV750 anti-TNF-α (MAB11; cat. #566359, 5 μl), BUV395 anti-IFN-γ (B27; cat. #563563, 5 μl), BV510 anti-GranB (GB11; cat. #563388, 5 μl), BV421 anti-IL-10 (JES3-9D7; cat. #564053, 5 μl), PE-CF594 anti-Ki67 (B56; cat. #567120, 5 μl) from BD Biosciences and FITC anti-Perforin (pf-344; cat. #3465-7, 5 μl) from MABTECH for 30 minutes at room temperature. Flow cytometry acquisitions were performed on a FACSYMPHONY™ A5 and examined using FACSDIVA™ software (BD Biosciences).

CC(=O)Sc1ccccc1C(=O)NCCC(N)=O [SAMT-247]
expression of granzyme, perforin, or cytokines ([1]; absence of PMA stimulation): did not affect
percentage of IFN-γ and TNF-α producing NKG2A^+ cells ([1]; presence of PMA): decreased
percentage of NKG2A^+ NK cells expressing granzyme B and perforin ([1]; presence of PMA): increased
Cytokine ([2]; Monocytes unstimulated or +gp120 peptides, * Zinc dependence): >IL-10 *
IL-10 expression in CD14^+ monocytes ([2]; SAMT-247 alone or together with gp120 peptides): increased
